Among the data in US10093713B2, “GIP-GLP-1 dual agonist compounds and methods” (priority 2013, dated 2018) are EC50 values, retold here.

One assay concerns the target T1, human GIP R (Homo sapiens, UniProt P48546).
T1 construct: expressed in transfected cells
T1 sequence (P48546 22-466): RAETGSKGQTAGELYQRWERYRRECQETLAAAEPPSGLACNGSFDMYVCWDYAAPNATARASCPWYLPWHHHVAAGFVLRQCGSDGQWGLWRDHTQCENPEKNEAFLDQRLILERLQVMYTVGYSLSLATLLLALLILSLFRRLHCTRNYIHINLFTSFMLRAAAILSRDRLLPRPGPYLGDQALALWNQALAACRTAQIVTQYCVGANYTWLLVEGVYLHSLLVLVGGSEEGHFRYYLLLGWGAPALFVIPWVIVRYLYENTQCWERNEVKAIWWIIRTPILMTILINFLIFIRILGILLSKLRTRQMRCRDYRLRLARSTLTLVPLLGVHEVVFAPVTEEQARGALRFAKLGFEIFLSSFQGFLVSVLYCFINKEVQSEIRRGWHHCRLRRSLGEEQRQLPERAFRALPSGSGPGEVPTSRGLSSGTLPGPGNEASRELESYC
As to the kind of experiment: Human GIP receptor (GIP R) activity assay, cAMP induction (AlphaScreen) in HEK293 cells. The note with it: Table 3; most comprehensive data; read-out: hGIP-R cAMP EC50 average value. It is filed as cell-based. An outline of the steps: (§1)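 Stable HEK293 clones expressing human GIP R or GLP-1 R, seeded 1 day before; cells washed in Tyrode's buffer (10 mM HEPES, pH 7.4), stimulated, then lysed. cAMP measured by AlphaScreen bead competition (1 h, room temperature, dark). EC50 = concentration giving half-maximal cAMP elevation, from curves of absolute cAMP (nM) vs log concentration.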

Another assay concerns the target T2, human GLP-1 R (Homo sapiens, UniProt P43220).
T2 construct: expressed in transfected cells
Kind of assay: Human GLP-1 receptor (GLP-1 R) activity assay, cAMP induction (AlphaScreen) in HEK293 cells. Type of assay: cell-based. The settings on record: Table 3; most comprehensive data; read-out: hGLP-1-R cAMP EC50 average value. Put shortly:
as §1

*1 amine or outer side, *2 acyl side, *3 side chain or, on linkers, in order; H or OH if unused. Where a SMILES comes first, the peptide text is derived from it. Side-chain parts run from the residue outwards. [ ]: non-standard residue; d: D form. The star is where a group is joined. X1 = O=C(O)CCCCCCCCCCCCCCCCCCC(=O)N1CCN(CC(=O)*)CC1; C20 diacid = O=C(O)CCCCCCCCCCCCCCCCCCC(=O)*; C18 diacid = O=C(O)CCCCCCCCCCCCCCCCC(=O)*; γGlu = O=C(O)[C@H](CCC(=O)[*:2])N[*:1]; AEEA = NCCOCCOCC(=O)O; Aib = CC(C)(N)C(=O)O

T2 sequence (P43220 24-463): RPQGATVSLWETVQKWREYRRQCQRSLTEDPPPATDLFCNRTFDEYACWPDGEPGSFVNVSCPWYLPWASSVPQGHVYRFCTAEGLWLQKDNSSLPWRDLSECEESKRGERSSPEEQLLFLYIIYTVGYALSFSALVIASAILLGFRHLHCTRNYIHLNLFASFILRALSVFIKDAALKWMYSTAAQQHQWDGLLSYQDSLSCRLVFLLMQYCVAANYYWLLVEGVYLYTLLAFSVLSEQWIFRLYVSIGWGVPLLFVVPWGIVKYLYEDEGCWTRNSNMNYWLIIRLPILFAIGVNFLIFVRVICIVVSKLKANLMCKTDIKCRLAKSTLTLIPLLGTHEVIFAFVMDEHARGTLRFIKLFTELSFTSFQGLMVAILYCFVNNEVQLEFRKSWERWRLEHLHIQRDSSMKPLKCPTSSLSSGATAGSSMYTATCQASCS

For orientation: EC50 means the concentration needed to bring the measured effect to its halfway point. In the case of `CC[C@H](C)[C@H](NC(=O)[C@H](CO)NC(=O)[C@H](Cc1ccc(O)cc1)NC(=O)[C@H](CC(=O)O)NC(=O)[C@H](CO)NC(=O)[C@@H](NC(=O)[C@H](Cc1ccccc1)NC(=O)[C@@H](NC(=O)CNC(=O)[C@H](CCC(=O)O)NC(=O)C(C)(C)NC(=O)[C@@H](N)Cc1ccc(O)cc1)[C@@H](C)O)[C@@H](C)O)C(=O)N[C@@H](C)C(=O)N[C@@H](CC(C)C)C(=O)N[C@@H](CC(=O)O)C(=O)N[C@@H](CCCCN)C(=O)N[C@@H](CCCCNC(=O)COCCOCCNC(=O)COCCOCCNC(=O)CC[C@H](NC(=O)CCCCCCCCCCCCCCCCCCC(=O)O)C(=O)O)C(=O)N[C@@H](C)C(=O)N[C@@H](CCC(N)=O)C(=O)N[C@@H](CCCCN)C(=O)N[C@@H](CCC(=O)O)C(=O)N[C@@H](Cc1ccccc1)C(=O)N[C@H](C(=O)N[C@@H](CCC(=O)O)C(=O)N[C@@H](Cc1c[nH]c2ccccc12)C(=O)N[C@@H](CC(C)C)C(=O)N[C@@H](CC(C)C)C(=O)N[C@@H](C)C(=O)N[C@@H](CCC(N)=O)C(=O)NCC(=O)N1CCC[C@H]1C(=O)N[C@@H](CO)C(=O)N[C@@H](CO)C(=O)NCC(=O)N[C@@H](C)C(=O)N1CCC[C@H]1C(=O)N1CCC[C@H]1C(=O)N1CCC[C@H]1C(=O)N[C@@H](CO)C(N)=O)C(C)C` [Compound 48] (H-Y[Aib]EGTFTSDYSIALDKK([AEEA-AEEA-γGlu-C20 diacid])AQKEFVEWLLAQGPSSGAPPPS-NH2), the EC50 was 0.006 nM on human GIP R and 0.052 nM on human GLP-1 R.
Turning to `CC[C@H](C)[C@H](NC(=O)[C@H](CO)NC(=O)[C@H](Cc1ccc(O)cc1)NC(=O)[C@H](CC(=O)O)NC(=O)[C@H](CO)NC(=O)[C@@H](NC(=O)[C@H](Cc1ccccc1)NC(=O)[C@@H](NC(=O)CNC(=O)[C@H](CCC(=O)O)NC(=O)C(C)(C)NC(=O)[C@@H](N)Cc1ccc(O)cc1)[C@@H](C)O)[C@@H](C)O)C(=O)N[C@@H](C)C(=O)N[C@@H](CC(C)C)C(=O)N[C@@H](CC(=O)O)C(=O)N[C@@H](CCCCN)C(=O)N[C@@H](CCCCNC(=O)COCCOCCNC(=O)COCCOCCNC(=O)CC[C@H](NC(=O)CCCCCCCCCCCCCCCCCCC(=O)O)C(=O)O)C(=O)N[C@@H](C)C(=O)N[C@@H](CCC(N)=O)C(=O)N[C@@H](CCCCN)C(=O)N[C@@H](CCC(=O)O)C(=O)N[C@@H](Cc1ccccc1)C(=O)N[C@H](C(=O)N[C@@H](CCC(=O)O)C(=O)N[C@@H](Cc1c[nH]c2ccccc12)C(=O)N[C@@H](CC(C)C)C(=O)N[C@@H](CC(C)C)C(=O)N[C@@H](C)C(=O)N[C@@H](C)C(=O)NCC(=O)N1CCC[C@H]1C(=O)N[C@@H](CO)C(=O)N[C@@H](CO)C(=O)NCC(=O)N[C@@H](C)C(=O)N1CCC[C@H]1C(=O)N1CCC[C@H]1C(=O)N1CCC[C@H]1C(=O)N[C@@H](CO)C(N)=O)C(C)C` [Compound 49] (H-Y[Aib]EGTFTSDYSIALDKK([AEEA-AEEA-γGlu-C20 diacid])AQKEFVEWLLAAGPSSGAPPPS-NH2), the half-maximal effective concentration (EC50) at human GIP R amounted to 0.009 nM; at human GLP-1 R, 0.053 nM.
For `CC[C@H](C)[C@H](NC(=O)[C@H](CO)NC(=O)[C@H](Cc1ccc(O)cc1)NC(=O)[C@H](CC(=O)O)NC(=O)[C@H](CO)NC(=O)[C@@H](NC(=O)[C@H](Cc1ccccc1)NC(=O)[C@@H](NC(=O)CNC(=O)[C@H](CCC(=O)O)NC(=O)C(C)(C)NC(=O)[C@@H](N)Cc1ccc(O)cc1)[C@@H](C)O)[C@@H](C)O)C(=O)N[C@@H](C)C(=O)N[C@@H](CC(C)C)C(=O)N[C@@H](CC(=O)O)C(=O)N[C@@H](CCCCN)C(=O)N[C@@H](CCCCNC(=O)COCCOCCNC(=O)COCCOCCNC(=O)CC[C@H](NC(=O)CCCCCCCCCCCCCCCCCCC(=O)O)C(=O)O)C(=O)N[C@@H](C)C(=O)N[C@@H](CCC(N)=O)C(=O)N[C@@H](CCCNC(=N)N)C(=O)N[C@@H](C)C(=O)N[C@@H](Cc1ccccc1)C(=O)N[C@H](C(=O)N[C@@H](CCC(=O)O)C(=O)N[C@@H](Cc1c[nH]c2ccccc12)C(=O)N[C@@H](CC(C)C)C(=O)N[C@@H](CC(C)C)C(=O)N[C@@H](C)C(=O)N[C@@H](CCC(N)=O)C(=O)NCC(=O)N1CCC[C@H]1C(=O)N[C@@H](CO)C(=O)N[C@@H](CO)C(=O)NCC(=O)N[C@@H](C)C(=O)N1CCC[C@H]1C(=O)N1CCC[C@H]1C(=O)N1CCC[C@H]1C(=O)N[C@@H](CO)C(N)=O)[C@@H](C)CC` [Compound 50] (H-Y[Aib]EGTFTSDYSIALDKK([AEEA-AEEA-γGlu-C20 diacid])AQRAFIEWLLAQGPSSGAPPPS-NH2), the EC50 at human GIP R worked out at 0.007 nM; on human GLP-1 R, 0.015 nM.
On the same counts, the results for `CC[C@H](C)[C@H](NC(=O)[C@H](CO)NC(=O)[C@H](Cc1ccc(O)cc1)NC(=O)[C@H](CC(=O)O)NC(=O)[C@H](CO)NC(=O)[C@@H](NC(=O)[C@H](Cc1ccccc1)NC(=O)[C@@H](NC(=O)CNC(=O)[C@H](CCC(=O)O)NC(=O)C(C)(C)NC(=O)[C@@H](N)Cc1ccc(O)cc1)[C@@H](C)O)[C@@H](C)O)C(=O)N[C@@H](C)C(=O)N[C@@H](CC(C)C)C(=O)N[C@@H](CC(=O)O)C(=O)N[C@@H](CCCCN)C(=O)N[C@@H](CCCCNC(=O)COCCOCCNC(=O)COCCOCCNC(=O)CC[C@H](NC(=O)CCCCCCCCCCCCCCCCC(=O)O)C(=O)O)C(=O)N[C@@H](C)C(=O)N[C@@H](CCC(N)=O)C(=O)N[C@@H](CCCNC(=N)N)C(=O)N[C@@H](C)C(=O)N[C@@H](Cc1ccccc1)C(=O)N[C@H](C(=O)N[C@@H](CCC(=O)O)C(=O)N[C@@H](Cc1c[nH]c2ccccc12)C(=O)N[C@@H](CC(C)C)C(=O)N[C@@H](CC(C)C)C(=O)N[C@@H](C)C(=O)N[C@@H](CCC(N)=O)C(=O)NCC(=O)N1CCC[C@H]1C(=O)N[C@@H](CO)C(=O)N[C@@H](CO)C(=O)NCC(=O)N[C@@H](C)C(=O)N1CCC[C@H]1C(=O)N1CCC[C@H]1C(=O)N1CCC[C@H]1C(=O)N[C@@H](CO)C(N)=O)C(C)C` [Compound 51] (H-Y[Aib]EGTFTSDYSIALDKK([AEEA-AEEA-γGlu-C18 diacid])AQRAFVEWLLAQGPSSGAPPPS-NH2) are 0.005 nM and 0.017 nM.
The matching figures for `CC[C@H](C)[C@H](NC(=O)[C@H](CO)NC(=O)[C@H](Cc1ccc(O)cc1)NC(=O)[C@H](CC(=O)O)NC(=O)[C@H](CO)NC(=O)[C@@H](NC(=O)[C@H](Cc1ccccc1)NC(=O)[C@@H](NC(=O)CNC(=O)[C@H](CCC(=O)O)NC(=O)C(C)(C)NC(=O)[C@@H](N)Cc1ccc(O)cc1)[C@@H](C)O)[C@@H](C)O)C(=O)N[C@@H](C)C(=O)N[C@@H](CC(C)C)C(=O)N[C@@H](CC(=O)O)C(=O)N[C@@H](CCCCN)C(=O)N[C@@H](CCCCNC(=O)COCCOCCNC(=O)COCCOCCNC(=O)CN1CCN(C(=O)CCCCCCCCCCCCCCCCCCC(=O)O)CC1)C(=O)N[C@@H](C)C(=O)N[C@@H](CCC(N)=O)C(=O)N[C@@H](CCCNC(=N)N)C(=O)N[C@@H](C)C(=O)N[C@@H](Cc1ccccc1)C(=O)N[C@H](C(=O)N[C@@H](CCC(=O)O)C(=O)N[C@@H](Cc1c[nH]c2ccccc12)C(=O)N[C@@H](CC(C)C)C(=O)N[C@@H](CC(C)C)C(=O)N[C@@H](C)C(=O)N[C@@H](CCC(N)=O)C(=O)NCC(=O)N1CCC[C@H]1C(=O)N[C@@H](CO)C(=O)N[C@@H](CO)C(=O)NCC(=O)N[C@@H](C)C(=O)N1CCC[C@H]1C(=O)N1CCC[C@H]1C(=O)N1CCC[C@H]1C(=O)N[C@@H](CO)C(N)=O)C(C)C` [Compound 52] (H-Y[Aib]EGTFTSDYSIALDKK([AEEA-AEEA-X1])AQRAFVEWLLAQGPSSGAPPPS-NH2): 0.01 nM and 0.012 nM.
For `CC[C@H](C)[C@H](NC(=O)[C@H](CO)NC(=O)[C@H](Cc1ccc(O)cc1)NC(=O)[C@H](CC(=O)O)NC(=O)[C@H](CO)NC(=O)[C@@H](NC(=O)[C@H](Cc1ccccc1)NC(=O)[C@@H](NC(=O)CNC(=O)[C@H](CCC(=O)O)NC(=O)C(C)(C)NC(=O)[C@@H](N)Cc1ccc(O)cc1)[C@@H](C)O)[C@@H](C)O)C(=O)N[C@@H](C)C(=O)N[C@@H](CC(C)C)C(=O)N[C@@H](CC(=O)O)C(=O)N[C@@H](CCCCN)C(=O)N[C@@H](CCCCNC(=O)COCCOCCNC(=O)COCCOCCNC(=O)CN1CCN(C(=O)CCCCCCCCCCCCCCCCCCC(=O)O)CC1)C(=O)N[C@@H](C)C(=O)N[C@@H](CCC(N)=O)C(=O)N[C@@H](CCCCN)C(=O)N[C@@H](CCC(=O)O)C(=O)N[C@@H](Cc1ccccc1)C(=O)N[C@H](C(=O)N[C@@H](CCC(=O)O)C(=O)N[C@@H](Cc1c[nH]c2ccccc12)C(=O)N[C@@H](CC(C)C)C(=O)N[C@@H](CC(C)C)C(=O)N[C@@H](C)C(=O)N[C@@H](C)C(=O)NCC(=O)N1CCC[C@H]1C(=O)N[C@@H](CO)C(=O)N[C@@H](CO)C(=O)NCC(=O)N[C@@H](C)C(=O)N1CCC[C@H]1C(=O)N1CCC[C@H]1C(=O)N1CCC[C@H]1C(=O)N[C@@H](CO)C(N)=O)C(C)C` [Compound 53] (H-Y[Aib]EGTFTSDYSIALDKK([AEEA-AEEA-X1])AQKEFVEWLLAAGPSSGAPPPS-NH2), the figures for the EC50 on human GIP R and on human GLP-1 R were 0.006 nM and 0.014 nM, respectively.
